# ChEMBL document CHEMBL4024702, “Covalent Modifiers: A Chemical Perspective on the Reactivity of α,β-Unsaturated Carbonyls with Thiols via Hetero-Michael Addition Reactions” (J Med Chem, 2017)
# Key:
# [1] = tested on: 518A2; assay: Cytotoxicity against human 518A2 cells assessed as reduction in cell viability after 96 hrs by SRB asssay; format: functional, cell-based; conditions: 518A2, 96 h
# [2] = tested on: A-431; assay: Cytotoxicity against human A431 cells assessed as reduction in cell viability after 96 hrs by SRB asssay; format: functional, cell-based; conditions: A-431, 96 h
# [3] = tested on: A549; assay: Cytotoxicity against human A549 cells assessed as reduction in cell viability after 96 hrs by SRB asssay; format: functional, cell-based; conditions: A549, 96 h
# [4] = tested on: HT-29; assay: Cytotoxicity against human HT-29 cells assessed as reduction in cell viability after 96 hrs by SRB asssay; format: functional, cell-based; conditions: HT-29, 96 h
# [5] = tested on: MCF7; assay: Cytotoxicity against human MCF7 cells assessed as reduction in cell viability after 96 hrs by SRB asssay; format: functional, cell-based; conditions: MCF7, 96 h
# [6] = Cysteamine reactivity of the compound in TRIS-HCL assessed as second order rate constant at 40 uM and pH 7.4
# [7] = Thiol reactivity of the compound in PBS/DMSO buffer assessed as pseudo-first order rate constant for adduct formation
# [8] = Glutathione reactivity of the compound in DMSO and phosphate buffer assessed as second order rate constant for adduct formation
# [9] = Glutathione reactivity of the compound in PBS buffer assessed as rate constant for 1,4-adduct formation at pH 7.4
# [10] = Cytotoxicity against human H1HeLa cells after 2 days by XTT/PMS dye based assay; format: cell-based, H1-HeLa
# [11] = tested on: rhinovirus B14; assay: Irreversible inhibition of human rhinovirus serotype 14 3C protease assessed as ratio of Kobs/I by spectrofluorimetric analysis
# [12] = tested on: rhinovirus B14; assay: Antiviral activity against rhinovirus serotype 14 infected in human H1HeLa cells after 2 days by XTT/PMS dye based assay; format: functional, cell-based; conditions: Rhinovirus B, H1-HeLa, 48 h
# [13] = Cysteine reactivity of the compound assessed as second order rate constant by 1H NMR analysis
# [14] = Thiol reactivity of the compound in DMSO/PBS buffer assessed as adduct formation by measuring half life of parent compound by 1H NMR analysis; format: physicochemical
structure (smiles),measurement,setting,value
CC1=CC[C@]23O[C@@]2(C)CC[C@@H]2[C@H](OC(=O)[C@H]2CSc2ccccc2C(=O)O)[C@@H]13,IC50,[1],16.9 µM
same,IC50,[2],13.6 µM
same,IC50,[3],10.1 µM
same,IC50,[4],17.8 µM
same,IC50,[5],16.9 µM
COc1ccc(C(=O)C(Cl)C(SCCN)c2ccc(OC)c(OC)c2)c(OC)c1 (stereo not drawn),K,[6],1.6 M⁻¹ s⁻¹
C=CS(=O)(=O)Nc1ccc([N+](=O)[O-])cc1,K,[7],9 ×10⁻³ /s
C#CCOC(=O)C=C,K,[8],51.4 M⁻¹ s⁻¹
CC(CC=O)SC[C@H](N)C(=O)O (stereo partly drawn),K,[9],8.9 M⁻¹ s⁻¹
CCOC(=O)/C=C/[C@H](CCC(N)=O)NC(=O)[C@H](Cc1ccccc1)NC(=O)[C@H](CC(C)C)NC(=O)OCc1ccccc1,CC50 at 48 h,[10],> 320 µM
CCCC/C=C/C=C/C=O,K,[8],3.49 M⁻¹ s⁻¹
CC(C)C[C@H](NC(=O)OCc1ccccc1)C(=O)N[C@@H](Cc1ccccc1)C(=O)N[C@H](/C=C/C(=O)N(C)C)CCC(N)=O,Ratio,[11],1300 M⁻¹ s⁻¹
same,EC50,[12],56 µM
same,CC50 at 48 h,[10],> 100 µM
C=C(C)C(=O)O[C@H]1CC2=C[C@@H](C[C@@]3(C)O[C@H]3[C@H]3OC(=O)C(CSC[C@H](N)C(=O)O)[C@@H]31)OC2=O (stereo partly drawn),K,[13],1.7 M⁻¹ s⁻¹
COC(=O)/C=C/CNC(=O)c1ccccc1,K,[7],3.7 ×10⁻⁴ /s
CC(=O)N1CC/C(=C\[C@H](CCC(N)=O)NC(=O)[C@H](Cc2ccccc2)NC(=O)[C@H](CC(C)C)NC(=O)OCc2ccccc2)C1=O,Ratio,[11],156000 M⁻¹ s⁻¹
same,EC50,[12],0.71 µM
same,CC50 at 48 h,[10],> 100 µM
N[C@@H](CSCCC=O)C(=O)O,K,[9],220 M⁻¹ s⁻¹
C=CC(=O)OCC,K,[8],10.6 M⁻¹ s⁻¹
CS(=O)(=O)/C=C/CNC(=O)c1ccc([N+](=O)[O-])cc1,K,[7],4 ×10⁻³ /s
CC1=CC[C@]23O[C@@]2(C)CC[C@@H]2[C@H](OC(=O)[C@H]2CN(C)C)[C@@H]13,IC50,[1],5.54 µM
same,IC50,[2],5.19 µM
same,IC50,[3],1.95 µM
same,IC50,[4],10.8 µM
same,IC50,[5],1.85 µM
N#CC(c1ccncc1)C(SCCO)c1ccccc1 (stereo not drawn),t1/2,[14],4.6 min
CCCC/C=C/C(C)=O,K,[8],11.4 M⁻¹ s⁻¹
CC(C)C[C@H](NC(=O)OCc1ccccc1)C(=O)N[C@@H](Cc1ccccc1)C(=O)N[C@H](/C=C/C(=O)N1CCOC1=O)CCC(N)=O,Ratio,[11],600000 M⁻¹ s⁻¹
same,EC50,[12],1.6 µM
same,CC50 at 48 h,[10],> 100 µM
C=CC(=O)Nc1ccccc1,K,[7],1.6 ×10⁻⁴ /s
CC(C)C[C@H](NC(=O)OCc1ccccc1)C(=O)N[C@@H](Cc1ccccc1)C(=O)N[C@H](/C=C/C(=O)O)CCC(N)=O,Ratio,[11],30 M⁻¹ s⁻¹
same,EC50,[12],> 100 µM
same,CC50 at 48 h,[10],> 100 µM
C=CCOC(=O)C=C,K,[8],19.6 M⁻¹ s⁻¹
Cc1csc(C(C#N)C(SCCO)c2ccccc2)n1 (stereo not drawn),t1/2,[14],< 1 min
COc1ccc(C(=O)C(I)C(SCCN)c2ccc(OC)c(OC)c2)c(OC)c1 (stereo not drawn),K,[6],0.28 M⁻¹ s⁻¹
COc1ccc(C(=O)NC/C=C/S(C)(=O)=O)cc1,K,[7],2.8 ×10⁻³ /s
C=C(C=O)CC,K,[8],59.4 M⁻¹ s⁻¹
CC(C)C[C@H](NC(=O)OCc1ccccc1)C(=O)N[C@@H](Cc1ccccc1)C(=O)N[C@H](/C=C/C(=O)N1CC=CC1)CCC(N)=O,Ratio,[11],8500 M⁻¹ s⁻¹
same,EC50,[12],> 44 µM
same,CC50 at 48 h,[10],44 µM
CCNC(=O)/C=C/[C@H](CCC(N)=O)NC(=O)[C@H](Cc1ccccc1)NC(=O)[C@H](CC(C)C)NC(=O)OCc1ccccc1,Ratio,[11],350 M⁻¹ s⁻¹
same,EC50,[12],> 320 µM
same,CC50 at 48 h,[10],> 320 µM
COc1ccc(C(C(=O)c2ccc(OC)cc2OC)C(SCCN)c2ccc(OC)c(OC)c2)cc1 (stereo not drawn),K,[6],0.0086 M⁻¹ s⁻¹
CS(=O)(=O)/C=C/CNC(=O)c1ccccc1,K,[7],3.9 ×10⁻³ /s
CC(C)C[C@H](NC(=O)OCc1ccccc1)C(=O)N[C@@H](Cc1ccccc1)C(=O)N[C@H](/C=C1\CCOC1=O)CCC(N)=O,Ratio,[11],10900 M⁻¹ s⁻¹
same,EC50,[12],5.2 µM
same,CC50 at 48 h,[10],> 320 µM
COC(=O)/C=C/[C@H](CCC(N)=O)NC(=O)[C@H](Cc1ccccc1)NC(=O)[C@H](CC(C)C)NC(=O)OCc1ccccc1,Ratio,[11],20000 M⁻¹ s⁻¹
same,EC50,[12],1.3 µM
same,CC50 at 48 h,[10],> 320 µM
CC(O)C(CC1NC(C(=O)O)CS1)SC[C@H](C)C(=O)O (stereo partly drawn),K,[9],1.1 M⁻¹ s⁻¹
CC(C)C[C@H](NC(=O)OCc1ccccc1)C(=O)N[C@@H](Cc1ccccc1)C(=O)N[C@H](/C=C/C(=O)n1ccc2ccccc21)CCC(N)=O,Ratio,[11],53000 M⁻¹ s⁻¹
same,EC50,[12],1.8 µM
same,CC50 at 48 h,[10],29 µM
CC(C)=CC=O,K,[8],1.71 M⁻¹ s⁻¹
CCN(CC)c1ccc(C(=O)/C=C/[C@H](CCC(N)=O)NC(=O)[C@H](Cc2ccccc2)NC(=O)[C@H](CC(C)C)NC(=O)OCc2ccccc2)cc1,Ratio,[11],4500 M⁻¹ s⁻¹
same,EC50,[12],> 25 µM
same,CC50 at 48 h,[10],25 µM
COc1ccc(C(=O)C(C)C(SCCN)c2ccc(OC)c(OC)c2)c(OC)c1 (stereo not drawn),K,[6],0.0075 M⁻¹ s⁻¹
CC1=CC[C@]23O[C@@]2(C)CC[C@@H]2[C@H](OC(=O)[C@H]2CN2CCSCC2)[C@@H]13,IC50,[1],13.2 µM
same,IC50,[2],16.9 µM
same,IC50,[3],4.76 µM
same,IC50,[4],16.2 µM
same,IC50,[5],13.4 µM
COc1ccc(C(=O)C(F)C(SCCN)c2ccc(OC)c(OC)c2)c(OC)c1 (stereo not drawn),K,[6],0.017 M⁻¹ s⁻¹
CCC/C=C/C/C=C/C=O,K,[8],22.8 M⁻¹ s⁻¹
N#Cc1ccc(C(C#N)C(SCCO)c2ccccc2)cc1 (stereo not drawn),t1/2,[14],8.9 min
CC1OC(O)CC1SC[C@@H](N)C(=O)O (stereo partly drawn),K,[9],25 M⁻¹ s⁻¹
CC1=CC[C@]23O[C@@]2(C)CC[C@@H]2[C@H](OC(=O)[C@H]2CN2CCCCC2)[C@@H]13,IC50,[1],14.3 µM
same,IC50,[2],18.9 µM
same,IC50,[3],4.76 µM
same,IC50,[4],8.1 µM
same,IC50,[5],16.9 µM
